Converted amounts (≈) assume the structure as drawn. “Also recorded” adds a separate entry of the source. Read-outs that look alike come from different tables or passages of the source. Where only a bound is given, the exact number is not on record here.

Series [1] is described as follows: Solubility in water with surfactants and co-solvating agents. Format: physicochemical. An excerpt: As noted above, this improved process permits solutions of higher concentration to be prepared than is possible by conventional techniques.
The next series has as its system thymus involution. Put plainly: Rat model of thymus involution. Format: in vivo. The settings on record: 3 daily IT doses of 100 μg.
Series [2] is described as follows: Pharmacokinetics after intravenous and oral dosing in rats. Format: in vivo. Particulars: male, Wistar Han, plasma, rat; for clearance: IV 0.1 mg/kg.
A further series relates to lung eosinophilia. Put plainly: Ovalbumin sensitised Brown Norway rat eosinophilia model. Format: in vivo. Particulars: single intra-tracheal dose of 30 μg, suspension in saline, 30 min prior to ovalbumin challenge. The protocol: Pharmacological activity in vivo was assessed in an-ovalbumin sensitised Brown Norway rat eosinophilia model. This model is designed to mimic allergen induced lung eosinophilia, a major component of lung inflammation in asthma.

Series [3] in a line: Pharmacokinetics after intravenous administration in the anaesthetised pig. Particulars: intravenous mixture of the two compounds at 0.1 mg/kg. Format: in vivo. An excerpt: The clearance of these two glucocorticoids is similar is this experimental pig model.
Series [4] in a line: Pharmacokinetics after intra-tracheal dry powder dosing in the pig. Format: in vivo. The settings on record: for time after dosing up to which quantifiable in plasma / Cmax / AUC(0-inf): pig; for time after dosing up to which quantifiable in plasma: intra-tracheal 1 mg, LLOQ 10 and 20 pg/mL; for Cmax / AUC(0-inf): plasma, 1 mg; for Cmax: inhaled or intranasal; for AUC(0-inf): iv, compound (I) calculated with IV half-life. The protocol: Serial blood samples were taken for up to 8 h following dosing.

The target of a further series is T1, glucocorticoid receptor (Homo sapiens, UniProt P04150).
T1 sequence (P04150 1-777): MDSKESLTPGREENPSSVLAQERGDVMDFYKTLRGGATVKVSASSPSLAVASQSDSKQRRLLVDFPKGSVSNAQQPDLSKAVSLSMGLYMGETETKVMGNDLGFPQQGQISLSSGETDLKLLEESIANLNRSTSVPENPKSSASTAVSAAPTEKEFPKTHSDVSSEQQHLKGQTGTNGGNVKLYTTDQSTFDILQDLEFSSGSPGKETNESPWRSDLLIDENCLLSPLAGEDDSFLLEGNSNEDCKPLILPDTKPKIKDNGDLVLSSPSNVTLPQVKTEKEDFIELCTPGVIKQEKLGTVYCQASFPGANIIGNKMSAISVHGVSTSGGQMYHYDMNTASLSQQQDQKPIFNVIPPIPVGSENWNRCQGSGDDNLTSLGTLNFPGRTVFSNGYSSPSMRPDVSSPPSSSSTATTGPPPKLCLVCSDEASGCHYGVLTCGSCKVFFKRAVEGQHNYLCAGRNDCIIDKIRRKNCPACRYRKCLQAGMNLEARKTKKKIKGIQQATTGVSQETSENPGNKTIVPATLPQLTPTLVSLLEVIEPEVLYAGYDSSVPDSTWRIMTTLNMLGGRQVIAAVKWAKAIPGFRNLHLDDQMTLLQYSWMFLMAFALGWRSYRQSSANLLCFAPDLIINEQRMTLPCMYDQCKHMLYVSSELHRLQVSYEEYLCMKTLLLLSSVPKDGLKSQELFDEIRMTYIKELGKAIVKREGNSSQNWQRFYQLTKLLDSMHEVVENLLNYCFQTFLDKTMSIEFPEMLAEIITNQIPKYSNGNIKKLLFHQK
Nature of the series: In vitro functional glucocorticoid assays, metabolite versus parent. Format: cell-based. The protocol:
Compound (I) wherein R represents furan-2-yl undergoes highly efficient hepatic metabolism to yield the 17-β carboxylic acid (X) as the sole major metabolite in rat and human in vitro systems. […] Pharmacological activity was assessed in a functional in vitro assay of glucocorticoid agonist activity which is generally predictive of anti-inflammatory or anti-allergic activity in vivo.

In series [5] the target is T2, glucocorticoid receptor (GR) (Homo sapiens, UniProt P04150). Put plainly: Transactivation (GR): A549 cells with renilla luciferase reporter under glucocorticoid response elements. Format: cell-based. The settings on record: renilla luciferase GRE reporter, read-out: Transactivation (GR) ED50. An excerpt: (§1) The glucocorticoid receptor (GR) can function in at least two distinct mechanisms, by upregulating gene expression through the direct binding of GR to specific sequences in gene promotors, and by downregulating gene expression that is being driven by other transcription factors (such as NFκB or AP-1) through their direct interaction with GR.
(§2) The first cell line contains the firefly luciferase reporter gene under the control of a synthetic promoter that specifically responds to activation of the transcription factor NFκB when stimulated with TNFα. The second cell line contains the renilla luciferase reporter gene under the control of a synthetic promotor that comprises 3 copies of the consensus glucocorticoid response element, and which responds to direct stimulation by glucocorticoids. Simultaneous measurement of transactivation and transrepression was conducted by mixing the two cell lines in a 1:1 ratio in 96 well plate (40,000 cells per well) and growing overnight at 37° C. Test compounds were dissolved in DMSO, and added to the cells at a final DMSO concentration of 0.7%. After incubation for 1 h 0.5 ng/ml TNFα (R&D Systems) was added and after a further 15 hours at 37° C., the levels of firefly and renilla luciferase were measured using the Packard Firelite kit following the manufacturers' directions. Dose response curves were constructed from which EC50 values were determined.

Series [6] concerns the target T2, glucocorticoid receptor (GR). Put plainly: Transrepression (NFκB): A549 cells with firefly luciferase NFκB reporter, TNFα stimulated. Format: cell-based. Particulars: 0.5 ng/ml TNFα, read-out: Transrepression (NFκB) ED50.
Excerpt: as §1, §2

Where [7] appears, read: 5% Tyloxapol, aqueous with cosolvent or surfactant or cyclodextrin, 5% Tyloxapol, process performed at 60-70° C., read-out: solubility.
The mark [8] stands for this setting: 5% Tyloxapol, aqueous with cosolvent or surfactant or cyclodextrin, 5% Tyloxapol, process performed at room temperature, read-out: solubility.
[9] abbreviates: water, aqueous with cosolvent or surfactant or cyclodextrin, in water, Triton X-100 2% w/w, read-out: Solubility.
Setting [10] is: water, aqueous with cosolvent or surfactant or cyclodextrin, in water, Tyloxapol 2% w/w, read-out: Solubility.
Where [11] appears, read: water, aqueous with cosolvent or surfactant or cyclodextrin, in water, Tyloxapol 5% w/w and PEG200 10% w/w, read-out: Solubility.
[12] abbreviates: water, aqueous with cosolvent or surfactant or cyclodextrin, in water, Tyloxapol 5% w/w, read-out: Solubility.
The mark [13] stands for this setting: water, in water, no surfactant, read-out: Solubility.
Where [14] appears, read: Pig 1, intra-tracheal dry powder 1 mg.
[15] abbreviates: Pig 2, intra-tracheal dry powder 1 mg.

Take `C[C@@H]1C[C@H]2[C@@H]3C[C@H](F)C4=CC(=O)C=C[C@]4(C)[C@@]3(F)[C@@H](O)C[C@]2(C)[C@@]1(OC(=O)c1ccco1)C(=O)SCF` [Compound of Formula (I), 6α, 9α-difluoro-17α-[(2-furanylcarbonyl)oxy]-11β-hydroxy-16α-methyl-3-oxo-androsta-1,4-diene-17β-carbothioic acid S-fluoromethyl ester]: the solubility in series [1] (setting [7]) was determined as 344 µg/mL; in series [1] (setting [8]) it was 233 µg/mL; in [1] (water, aqueous with cosolvent or surfactant or cyclodextrin, in water, Triton X-100 0.5% w/w, read-out: Solubility), 18 µg/mL; in series [1] (setting [9]), 266 µg/mL; in series [1] (water, aqueous with cosolvent or surfactant or cyclodextrin, in water, Triton X-100 5% w/w and PEG200 10% w/w, read-out: Solubility) it was 840 µg/mL; in series [1] (water, aqueous with cosolvent or surfactant or cyclodextrin, in water, Triton X-100 5% w/w, read-out: Solubility) it was 549 µg/mL. For the same compound, the solubility in series [1] (water, aqueous with cosolvent or surfactant or cyclodextrin, in water, Triton X-305 5% w/w, read-out: Solubility) worked out at 204 µg/mL; in series [1] (setting [10]) it was 95 µg/mL; in series [1] (water, aqueous with cosolvent or surfactant or cyclodextrin, in water, Tyloxapol 5% w/w and Dextrose 4% w/w, read-out: Solubility), 526 µg/mL; in series [1] (setting [11]) it was 836 µg/mL; in series [1] (water, aqueous with cosolvent or surfactant or cyclodextrin, in water, Tyloxapol 5% w/w and Propylene glycol 10% w/w, read-out: Solubility), 422 µg/mL; in [1] (water, aqueous with cosolvent or surfactant or cyclodextrin, in water, Tyloxapol 5% w/w, no co-solvating agent, read-out: Solubility), 344 µg/mL. The solubility in series [1] (setting [12]) was 307 µg/mL; in series [1] (water, aqueous with cosolvent or surfactant or cyclodextrin, in water, Tyloxapol 6% w/w, read-out: Solubility), 346 µg/mL; in [1] (water, aqueous with cosolvent or surfactant or cyclodextrin, in water, Tyloxapol 7.5% w/w, read-out: Solubility) it was 576 µg/mL; in [1] (water, aqueous with cosolvent or surfactant or cyclodextrin, in water, Tyloxapol 10% w/w, read-out: Solubility), 585 µg/mL; in [1] (setting [13]), below 1 µg/mL. Moreover, the “reduction of thymus weight” value in the series on thymus involution was determined as 67%. The compound further registered a clearance in series [2] of 47.3 mL/min/kg. In series [2] (oral, 0.1 mg/kg, oral 0.1 mg/kg and IV 0.1 mg/kg), this compound displayed a bioavailability of 0.9%. The “inhibition of lung eosinophilia” value with lung eosinophilia amounted to 69%. Also, in series [3], the “pharmacokinetic parameters, compound (I) versus fluticasone propionate” value was “the same”. Besides, the “systemic exposure compared to fluticasone propionate” value in [4] (anaesthetised pigs, dry powder delivery to the lungs) is “markedly reduced systemic exposure; also recorded: significantly lower exposure”. The “time after dosing up to which quantifiable in plasma” value in series [4] is given as “up to 2 hours”. For the same compound, the Cmax in series [4] (setting [14]) was found to be 0.117 ng/mL; in series [4] (setting [15]), 0.081 ng/mL. Also, the area under the curve AUC(0-inf) in series [4] (setting [14]) is 0.254 ng·h/mL; in [4] (setting [15]) it was 0.221 ng·h/mL.
For the compound `CCC(=O)O[C@]1(C(=O)SCF)[C@H](C)C[C@H]2[C@@H]3C[C@H](F)C4=CC(=O)C=C[C@]4(C)[C@@]3(F)[C@@H](O)C[C@@]21C` [Fluticasone propionate, 6α, 9α-Difluoro-17α-(1-oxopropoxy)-11β-hydroxy-16α-methyl-3-oxo-androsta-1,4-diene-17-0-carbothioic acid S-fluoromethyl ester, reference compound], the solubility in series [1] (setting [7]) is 133 µg/mL (≈ 266 µM); in series [1] (setting [8]), 87 µg/mL (≈ 174 µM); in [1] (in water, Labrasol 10% w/w), “None detected”; in series [1] (in water, Triton X-45 5% w/w), “None detected”; in series [1] (water, aqueous with cosolvent or surfactant or cyclodextrin, in water, Sodium chenodesoxycholate 5% w/w, read-out: Solubility) it was 5.9 µg/mL (≈ 11.8 µM); in series [1] (water, aqueous with cosolvent or surfactant or cyclodextrin, in water, Sodium cholate 2% w/w, read-out: Solubility) it was 11 µg/mL (≈ 22 µM). Also, the solubility was 140 µg/mL (≈ 280 µM) in [1] (water, aqueous with cosolvent or surfactant or cyclodextrin, in water, Sodium cholate 20% w/w, read-out: Solubility); 69 µg/mL (≈ 138 µM) in series [1] (setting [9]); 41 µg/mL (≈ 81.9 µM) in series [1] (setting [10]); 207 µg/mL (≈ 414 µM) in series [1] (setting [11]); 197 µg/mL (≈ 394 µM) in series [1] (water, aqueous with cosolvent or surfactant or cyclodextrin, in water, Tyloxapol 5% w/w and Phospatidyl choline 1% w/w, read-out: Solubility); 133 µg/mL (≈ 266 µM) in series [1] (setting [12]). Also, in series [1] (setting [13]), the solubility is below 1 µg/mL. Besides, the “reduction of thymus weight” value with thymus involution is 78%. Further, the clearance in [2] was 45.2 mL/min/kg. Besides, the “pharmacokinetic parameters, compound (I) versus fluticasone propionate” value in series [3] is “the same”. Besides, the “time after dosing up to which quantifiable in plasma” value in series [4] is recorded as “up to 8 hours”. For the same compound, the peak concentration (Cmax) is 0.277 ng/mL in [4] (setting [14]) and 0.218 ng/mL in [4] (setting [15]). Besides, the AUC(0-inf) in [4] (setting [14]) was 0.455 ng·h/mL; in [4] (setting [15]), 0.495 ng·h/mL.
Turning to `C[C@@H]1CC2C3C[C@H](F)C4=CC(=O)C=C[C@]4(C)[C@@]3(F)[C@@H](O)C[C@]2(C)[C@@]1(OC(=O)c1ccco1)C(=O)O` (stereo partly shown) [Metabolite (X)], the “fold less active than the parent compound” value at glucocorticoid receptor was above 1000 fold. Moreover, the EC50 in series [5] was below 0.25 µM; in series [6] it was above 1 µM.

These data come from patent US6787532B2, “Formulation containing anti-inflammatory androstane derivatives” (SmithKline Beecham Corporation, priority 2000, dated 2004).
